Key:
[1] = Aqueous solubility with 0.1% w/w surfactants and polymers; dissolution behavior of forms; assay type: physicochemical; conditions: aqueous buffered solutions
Protocol: Excess solid was added to aqueous buffered solutions; samples were withdrawn at predetermined intervals (2, 5, 8, 10, 15, 20, 30, 45, 60 minutes, and 24 hours), filtered through regenerated cellulose filters, and diluted for concentration measurement by the HPLC-UV method.

[2] = PK of sofosbuvir alone or with Compound E (and ledipasvir); assay type: in vivo; conditions: for AUC(0-inf) / AUC(0-t) / Cmax: human, in vivo, n = 18, mean (% CV)
Protocol: Subjects (n=18) received single doses of sofosbuvir (400 mg) alone or in combination with Compound E (500 mg QD) under fed conditions.

HCV = experiment: Dose selection: antiviral response and Emax PK/PD modeling; assay type: in vivo, Hepatitis C virus
Protocol: The sofosbuvir dose selected for the tablet formulation is 400 mg once daily. Support for the 400 mg sofosbuvir dose can be derived from Emax PK/PD modeling with early virological and human exposure data which also supports the selection of a 400 mg sofosbuvir dose over others tested.
The mean sofosbuvir major metabolite AUCtau for the 400 mg sofosbuvir dose is associated with approximately 77% of the maximal HCV RNA change from baseline achievable as determined by this model, a value which is on the cusp of the plateau of the exposure-response sigmoidal curve. […] Therefore, given that sofosbuvir exposure with 200 mg tablets appears dose-proportional with single doses up to 1200 mg, doses below 400 mg are expected to yield considerable reductions in the magnitude of HCV RNA change from baseline.
The sofosbuvir dose of 400 mg once daily was associated with higher SVR rates in genotype 1 HCV infected patients as compared to the 200 mg once daily dose when given in conjunction with additional HCV therapeutics for 24 weeks. Safety and tolerability appeared similar across both dose levels. In addition, when sofosbuvir 400 mg once daily plus other HCV therapeutics were given to genotype 2 or 3 HCV infected patients, 100% SVR24 was observed.
The maximum median HCV RNA log 10 reduction was 3 or greater for all cohorts dosed with ≥3 mg of ledipasvir. […] Therefore, 30 mg and 90 mg of ledipasvir were selected as the dose for the formulations described herein.
Therefore, the 90 mg dose of ledipasvir may confer a greater antiviral coverage that prevents viral breakthrough.

[3] = Compatibility/stability of sofosbuvir and ledipasvir:copovidone solid dispersion blend; assay type: physicochemical; conditions: for Strength / Total Impurity Content: blend pellets, open glass vials
Protocol: The compatibility of sofosbuvir anhydrous crystalline drug substance was evaluated with the ledipasvir:copovidone solid dispersion. A blend of the sofosbuvir and ledipasvir:copovidone (1:1) solid dispersion was prepared at a ratio representative of the final 400 mg sofosbuvir/90 mg ledipasvir tablets. […]

[4] = PK of Sofosbuvir/Ledipasvir tablets fasted or with meals
clinical = conditions: in vivo; for AUC(0-inf) / AUC(0-t) / Cmax: po, plasma analyte, Sofosbuvir/Ledipasvir Tablet, n = 29, mean (% CV); for AUC(0-inf): AUCinf; for AUC(0-t): AUClast
[5] = Pharmacokinetics of sofosbuvir and ledipasvir alone or in combination; assay type: in vivo; conditions: for AUC(0-inf) / AUC(0-t) / Cmax: po, plasma analyte, n = 17, mean (% CV)
[6] = pH-solubility profile and solubility in simulated intestinal media; assay type: physicochemical; conditions: aqueous, neutral form (pH>5), room temperature
Protocol: Excess solid ledipasvir was added to a range of pH-adjusted aqueous solutions (titrated with HCl or NaOH) and stirred for 48 hours at room temperature. The suspensions were then filtered through regenerated cellulose syringe filters. The pH value of the supernatant was measured, and the supernatant was diluted as appropriate with 50:50 H2O+0.1% TFA:ACN and assayed for ledipasvir content by the HPLC-UV method.
Solubility of ledipasvir amorphous free base was assessed in three types of simulated intestinal fluids at pH 6.5 or pH 5.0; and simulated intestinal bile salt and lecithin mixture (SIBLM), pH 6.4. Excess solid ledipasvir was added to the respective SIFs and stirred for 48 hours at room temperature. The resulting suspensions were then filtered through regenerated cellulose syringe filters. The supernatant was diluted as appropriate with 50:50 H2O+0.1% TFA:ACN and assayed for ledipasvir content by the HPLC-UV method.

[7] = SOF + Compound E + ledipasvir vs SOF alone
[8] = po, 400 mg, SOF + Compound E (500 mg QD), fed
[9] = po, 400 mg, SOF alone (400 mg single dose, fed)
[10] = Sofosbuvir + Ledipasvir vs single agent alone
[11] = in vivo, Sofosbuvir + Ledipasvir
[12] = listed as Ledipasvir crystalline free base Form III

In the case of COC(=O)N[C@H](C(=O)N1CC2(CC2)C[C@H]1c1ncc(-c2ccc3c(c2)C(F)(F)c2cc(-c4ccc5nc([C@@H]6[C@H]7CC[C@H](C7)N6C(=O)[C@@H](NC(=O)OC)C(C)C)[nH]c5c4)ccc2-3)[nH]1)C(C)C [Ledipasvir-02], the “dissolution behavior relative to other ledipasvir forms” value [1] is reported as “improved relative to all free base forms”.

With CC(C)OC(=O)[C@H](C)N[P@](=O)(OC[C@H]1O[C@@H](n2ccc(=O)[nH]c2=O)[C@](C)(F)[C@@H]1O)Oc1ccccc1 [Sofosbuvir, (S)-isopropyl 2-(((S)-(((2R,3R,4R,5R)-5-(2,4-dioxo-3,4-dihydropyrimidin-1(2H)-yl)-4-fluoro-3-hydroxy-4-methyltetrahydrofuran-2-yl)methoxy)(phenoxy)phosphoryl)amino)propanoate] the “% GMR of AUCinf” value [2, 7] was 297%, the “% GMR of AUClast” value [2, 7] was 301% and the “% GMR of Cmax” value [2, 7] was 283%. The “% GMR of AUCinf” value ([2]; SOF + Compound E vs SOF alone) was 135%, the “% GMR of AUClast” value ([2]; SOF + Compound E vs SOF alone) was 135% and the “% GMR of Cmax” value ([2]; SOF + Compound E vs SOF alone) was 130%. For the same compound, the AUC(0-inf) ([2]; SOF + Compound E + ledipasvir) was 2560 ng·h/mL, the AUC(0-t) ([2]; SOF + Compound E + ledipasvir) was 2550 ng·h/mL and the Cmax ([2]; SOF + Compound E + ledipasvir) was 1260 ng/mL. It also gave an AUC(0-inf) [2, 8] of 1150 ng·h/mL, an AUC(0-t) [2, 8] of 1140 ng·h/mL and a Cmax [2, 8] of 587 ng/mL. For the same compound, the AUC(0-inf) [2, 9] was 921 ng·h/mL, the AUC(0-t) [2, 9] was 908 ng·h/mL and the Cmax [2, 9] was 515 ng/mL. The “share of the maximal HCV RNA change from baseline achievable (Emax PK/PD model)” value (HCV; 400 mg dose, mean major metabolite AUCtau) was “approximately 77%”, the SVR24 (HCV; 400 mg once daily plus other HCV therapeutics, genotype 2 or 3 HCV infected patients) was 100% and the “degradation in blend with the other active” value ([3]; 40° C./75% RH and 60° C./ambient humidity, two and four weeks) was “no degradation was observed”. For the same compound, the Strength ([3]; 45° C./75% RH, 0 weeks) was 102.9%, the “Total Impurity Content” value ([3]; 45° C./75% RH, 0 weeks) was 0.4% and the Strength ([3]; 45° C./75% RH, 2 weeks) was 101.6%. The “Total Impurity Content” value ([3]; 45° C./75% RH, 2 weeks) was 0.3%, the Strength ([3]; 45° C./75% RH, 4 weeks) was 100.5% and the “Total Impurity Content” value ([3]; 45° C./75% RH, 4 weeks) was 0.2%. For the same compound, the Strength ([3]; 60° C., 0 weeks) was 102.9%, the “Total Impurity Content” value ([3]; 60° C., 0 weeks) was 0.4% and the Strength ([3]; 60° C., 1 week) was 102.4%. The “Total Impurity Content” value ([3]; 60° C., 1 week) was 0.3%, the Strength ([3]; 60° C., 2 weeks) was 103.2% and the “Total Impurity Content” value ([3]; 60° C., 2 weeks) was 0.3%. For the same compound, the Strength ([3]; 60° C., 4 weeks) was 102.8%, the “Total Impurity Content” value ([3]; 60° C., 4 weeks) was 0.2% and the “% GMR (90% CI) [Moderate-Fat/Fasted] of AUCinf” value ([4]; Sofosbuvir/Ledipasvir Tablet) was 195 (176, 216) %. The “% GMR (90% CI) [Moderate-Fat/Fasted] of AUClast” value ([4]; Sofosbuvir/Ledipasvir Tablet) was 195 (176, 216) %, the “% GMR (90% CI) [Moderate-Fat/Fasted] of Cmax” value ([4]; Sofosbuvir/Ledipasvir Tablet) was 126 (109, 147) % and the “GMR (90% CI) [High-Fat/Fasted] of AUCinf” value ([4]; Sofosbuvir/Ledipasvir Tablet) was 179 (162, 198) %. The “GMR (90% CI) [High-Fat/Fasted] of AUClast” value ([4]; Sofosbuvir/Ledipasvir Tablet) was 178 (161, 198) %, the “GMR (90% CI) [High-Fat/Fasted] of Cmax” value ([4]; Sofosbuvir/Ledipasvir Tablet) was 115 (99.0, 134) % and the “median Tmax” value ([4]; sofosbuvir/ledipasvir composition, with food) was 2.00 h. The Tmax (clinical) was 1 h, the AUC(0-inf) (clinical; Fasted) was 1520 ng·h/mL and the AUC(0-inf) (clinical; High-Calorie/High-Fat Meal) was 2570 ng·h/mL. For the same compound, the AUC(0-inf) (clinical; Moderate-Fat Meal) was 2860 ng·h/mL, the AUC(0-t) (clinical; Fasted) was 1520 ng·h/mL and the AUC(0-t) (clinical; High-Calorie/High-Fat Meal) was 2550 ng·h/mL. The AUC(0-t) (clinical; Moderate-Fat Meal) was 2850 ng·h/mL, the Cmax (clinical; Fasted) was 1240 ng/mL and the Cmax (clinical; High-Calorie/High-Fat Meal) was 1350 ng/mL. The Cmax (clinical; Moderate-Fat Meal) was 1520 ng/mL, the “AUC with ledipasvir as share of total drug related material (DRM) AUC” value ([5]; DRM = sum of AUCs of analytes corrected for molecular weight) was ~5.7% and the “% GMR (90% CI) of AUCinf” value [5, 10] was 229 (191, 276) %. For the same compound, the “% GMR (90% CI) of AUClast” value [5, 10] was 230 (191, 277) %, the “% GMR (90% CI) of Cmax” value [5, 10] was 221 (176, 278) % and the “increase of plasma exposure by ledipasvir” value ([5]; in vivo) was ~2.3 fold. The AUC(0-inf) [5, 11] was 1750 ng·h/mL, the AUC(0-t) [5, 11] was 1740 ng·h/mL and the Cmax [5, 11] was 1870 ng/mL. For the same compound, the AUC(0-inf) ([5]; in vivo, Sofosbuvir alone) was 794 ng·h/mL, the AUC(0-t) ([5]; in vivo, Sofosbuvir alone) was 788 ng·h/mL and the Cmax ([5]; in vivo, Sofosbuvir alone) was 929 ng/mL.

With COC(=O)N[C@H](C(=O)N1CC2(CC2)C[C@H]1c1ncc(-c2ccc3c(c2)C(F)(F)c2cc(-c4ccc5nc([C@@H]6[C@H]7CC[C@H](C7)N6C(=O)[C@@H](NC(=O)OC)C(C)C)[nH]c5c4)ccc2-3)[nH]1)C(C)C [Ledipasvir-03] the “intrinsic solubility (S0)” value [6] was < 0.1 µg/mL and the “dissolution behavior relative to other ledipasvir forms” value [1] was “slowest dissolution of all forms tested”.

For COC(=O)N[C@H](C(=O)N1CC2(CC2)C[C@H]1c1ncc(-c2ccc3c(c2)C(F)(F)c2cc(-c4ccc5nc([C@@H]6[C@H]7CC[C@H](C7)N6C(=O)[C@@H](NC(=O)OC)C(C)C)[nH]c5c4)ccc2-3)[nH]1)C(C)C [Ledipasvir Form III], the “intrinsic solubility (S0)” value [6, 12] was < 0.1 µg/mL and the “dissolution behavior relative to other ledipasvir forms” value [1, 12] was “dissolves more slowly than the amorphous free base, but faster than ledipasvir-03”.

Reference: patent US10039779B2, “Combination formulation of two antiviral compounds” (priority 2013, dated 2018)
